According to PubChem BioAssay (NCI):
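Interpolation was linear, between the two tested concentrations surrounding the appropriate level; five concentrations were tested over 48 hours in 96-well plates. Here, GI50 denotes the concentration required for 50% inhibition of growth. Definition used: TGI = concentration required for complete inhibition of growth.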

Tests used:
Experiment in all cases: DTP human tumour cell line panel, 48 h; in the data active means GI50 below about 0.43 µM; inactive means the rest
UO-31 renal = system: UO-31 renal
TK-10 renal = system: TK-10 renal
SN12C renal = system: SN12C renal
CAKI-1 renal = system: CAKI-1 renal
RXF 393 renal = system: RXF 393 renal
PC-3 prostate = system: PC-3 prostate
SK-MEL-5 melanoma = system: SK-MEL-5 melanoma
MDA-MB-435 = system: MDA-MB-435
NCI-H522 lung = system: NCI-H522 lung
HOP-92 NSCLC = system: HOP-92 NSCLC
LOX IMVI melanoma = system: LOX IMVI melanoma
NCI/ADR-RES ovarian = system: NCI/ADR-RES ovarian
NCI-H23 lung = system: NCI-H23 lung
A549 NSCLC = system: A549 NSCLC
MCF7 breast = system: MCF7 breast
DU-145 prostate = system: DU-145 prostate
UACC-62 melanoma = system: UACC-62 melanoma
HCT-116 colon = system: HCT-116 colon
SF-539 CNS = system: SF-539 CNS
U251 CNS = system: U251 CNS
SF-268 CNS = system: SF-268 CNS
M14 melanoma = system: M14 melanoma
786-0 renal = system: 786-0 renal
UACC-257 melanoma = system: UACC-257 melanoma
HOP-62 NSCLC = system: HOP-62 NSCLC
OVCAR-5 ovarian = system: OVCAR-5 ovarian
SK-OV-3 ovarian = system: SK-OV-3 ovarian
SW-620 colon = system: SW-620 colon
SF-295 CNS = system: SF-295 CNS
OVCAR-3 ovarian = system: OVCAR-3 ovarian
HS 578T breast = system: HS 578T breast
OVCAR-8 ovarian = system: OVCAR-8 ovarian
NCI-H460 lung = system: NCI-H460 lung
ACHN renal = system: ACHN renal
SK-MEL-2 melanoma = system: SK-MEL-2 melanoma
OVCAR-4 ovarian = system: OVCAR-4 ovarian
SNB-19 CNS = system: SNB-19 CNS
MDA-MB-231 breast = system: MDA-MB-231 breast
HL-60(TB) leukemia = system: HL-60(TB) leukemia
RPMI-8226 leukemia = system: RPMI-8226 leukemia
SK-MEL-28 melanoma = system: SK-MEL-28 melanoma
KM12 colon = system: KM12 colon
K-562 leukemia = system: K-562 leukemia
HCT-15 colon = system: HCT-15 colon
EKVX NSCLC = system: EKVX NSCLC
COLO 205 colon = system: COLO 205 colon
BT-549 breast = system: BT-549 breast
SR leukemia = system: SR leukemia
IGROV1 ovarian = system: IGROV1 ovarian
T-47D breast = system: T-47D breast
HCC-2998 colon = system: HCC-2998 colon

COC(=O)C1=C(O)[C@H](C(=O)OC)C2(O)[C@@H](C(=O)OC)[C@H]1C[C@@H](c1ccc(OC(=O)n3ccnc3)cc1)[C@@H]2C(=O)OC
30.5 µM: TGI (SK-MEL-28 melanoma)
36.7 µM: TGI (SK-MEL-5 melanoma)
45.6 µM: TGI (786-0 renal) | TGI (SF-295 CNS)
21.4 µM: TGI (MDA-MB-435)
> 50 µM: TGI (TK-10 renal) | TGI (PC-3 prostate) | TGI (HOP-92 NSCLC) | TGI (LOX IMVI melanoma) | TGI (A549 NSCLC) | TGI (MCF7 breast) | TGI (HCT-116 colon) | TGI (U251 CNS) | TGI (SF-268 CNS) | TGI (M14 melanoma) | TGI (HOP-62 NSCLC) | TGI (OVCAR-5 ovarian) | TGI (SW-620 colon) | TGI (OVCAR-3 ovarian) | TGI (NCI-H460 lung) | TGI (SK-MEL-2 melanoma) | TGI (OVCAR-4 ovarian) | TGI (SNB-19 CNS) | TGI (HL-60(TB) leukemia) | TGI (RPMI-8226 leukemia) | TGI (K-562 leukemia) | TGI (HCT-15 colon) | TGI (SR leukemia)
36.4 µM: TGI (OVCAR-8 ovarian)
42.9 µM: TGI (DU-145 prostate)
inactive: GI50 (UO-31 renal) 8.87 µM | GI50 (TK-10 renal) 36.8 µM | GI50 (SN12C renal) 11.4 µM | GI50 (CAKI-1 renal) 12.7 µM | GI50 (RXF 393 renal) 11.8 µM | GI50 (PC-3 prostate) 22.4 µM | GI50 (SK-MEL-5 melanoma) 12.7 µM | GI50 (MDA-MB-435) 8.77 µM | GI50 (NCI-H522 lung) 10.9 µM | GI50 (HOP-92 NSCLC) 17.3 µM | GI50 (LOX IMVI melanoma) 13.8 µM | GI50 (NCI/ADR-RES ovarian) 16.1 µM | GI50 (NCI-H23 lung) 13.9 µM | GI50 (A549 NSCLC) 15.2 µM | GI50 (MCF7 breast) 18.4 µM | GI50 (DU-145 prostate) 11.7 µM | GI50 (UACC-62 melanoma) 9.07 µM | GI50 (HCT-116 colon) 16.8 µM | GI50 (SF-539 CNS) 8.44 µM | GI50 (U251 CNS) 17.9 µM | GI50 (SF-268 CNS) 18.7 µM | GI50 (M14 melanoma) 30.3 µM | GI50 (786-0 renal) 18.6 µM | GI50 (UACC-257 melanoma) 16 µM | GI50 (HOP-62 NSCLC) 31.3 µM | GI50 (OVCAR-5 ovarian) 25.7 µM | GI50 (SK-OV-3 ovarian) 10.3 µM | GI50 (SW-620 colon) 14.3 µM | GI50 (SF-295 CNS) 12.7 µM | GI50 (OVCAR-3 ovarian) 12.6 µM | GI50 (HS 578T breast) 12.6 µM | GI50 (OVCAR-8 ovarian) 13.4 µM | GI50 (NCI-H460 lung) 17 µM | GI50 (ACHN renal) 15.9 µM | GI50 (SK-MEL-2 melanoma) 22.8 µM | GI50 (OVCAR-4 ovarian) 20.2 µM | GI50 (SNB-19 CNS) 19.6 µM | GI50 (MDA-MB-231 breast) 14.8 µM | GI50 (HL-60(TB) leukemia) 13.3 µM | GI50 (RPMI-8226 leukemia) 18.1 µM | GI50 (SK-MEL-28 melanoma) 10.1 µM | GI50 (KM12 colon) 10.6 µM | GI50 (K-562 leukemia) 20.3 µM | GI50 (HCT-15 colon) 21 µM | GI50 (EKVX NSCLC) 13.1 µM | GI50 (COLO 205 colon) 9.69 µM | GI50 (BT-549 breast) 8.68 µM | GI50 (SR leukemia) 10.8 µM | GI50 (IGROV1 ovarian) 6.62 µM | GI50 (T-47D breast) 7.39 µM | GI50 (HCC-2998 colon) 9.63 µM
41.6 µM: TGI (CAKI-1 renal)
41.3 µM: TGI (HS 578T breast)
24.5 µM: TGI (KM12 colon)
48.6 µM: TGI (MDA-MB-231 breast)
25.4 µM: TGI (IGROV1 ovarian)
39.8 µM: TGI (UACC-257 melanoma)
26.7 µM: TGI (RXF 393 renal)
34.1 µM: TGI (COLO 205 colon)
30.7 µM: TGI (NCI/ADR-RES ovarian)
24.9 µM: TGI (BT-549 breast)
30.4 µM: TGI (UACC-62 melanoma)
42.6 µM: TGI (ACHN renal)
18 µM: TGI (HCC-2998 colon)
17.8 µM: TGI (UO-31 renal)
29.6 µM: TGI (SK-OV-3 ovarian)
45.4 µM: TGI (EKVX NSCLC)
34.4 µM: TGI (NCI-H522 lung)
25.6 µM: TGI (NCI-H23 lung)
21.3 µM: TGI (SF-539 CNS)
30 µM: TGI (SN12C renal)
46.4 µM: TGI (T-47D breast)
